Reference: ChEMBL document CHEMBL1221256, “A mutant selective anti-estrogen is a pure antagonist on EREs and AP-1 response elements” (Bioorg Med Chem Lett, 2010)
The source made the active and inactive calls. The rule behind the calls is not given here.

How the values were obtained:
[1] = molecular target: T1, Estrogen receptor beta (Homo sapiens, UniProt Q92731)
Description: Antagonist activity at human wild type ERbeta expressed in human HeLa cells co-expressing AP-1 assessed as inhibition of transactivation activity by luciferase reporter gene assay

[2] = test system: Estrogen receptor beta (Homo sapiens), Q92731 [E305A]; assay: Antagonist activity at human ERbeta E305A mutant expressed in human HeLa cells co-expressing AP-1 assessed as inhibition of transactivation activity at up to 10 uM by luciferase reporter gene assay; type: functional, cell-based
[3] = molecular target: T1, Estrogen receptor beta; remark: listed apart in the source
[4] = molecular target: Estrogen receptor beta (Homo sapiens, UniProt Q92731, E305A)
[5] = molecular target: T1, Estrogen receptor beta; remark: listed apart in the source
[6] = molecular target: T2, Estrogen receptor (Homo sapiens, UniProt P03372)
T2 sequence (P03372 whole entry): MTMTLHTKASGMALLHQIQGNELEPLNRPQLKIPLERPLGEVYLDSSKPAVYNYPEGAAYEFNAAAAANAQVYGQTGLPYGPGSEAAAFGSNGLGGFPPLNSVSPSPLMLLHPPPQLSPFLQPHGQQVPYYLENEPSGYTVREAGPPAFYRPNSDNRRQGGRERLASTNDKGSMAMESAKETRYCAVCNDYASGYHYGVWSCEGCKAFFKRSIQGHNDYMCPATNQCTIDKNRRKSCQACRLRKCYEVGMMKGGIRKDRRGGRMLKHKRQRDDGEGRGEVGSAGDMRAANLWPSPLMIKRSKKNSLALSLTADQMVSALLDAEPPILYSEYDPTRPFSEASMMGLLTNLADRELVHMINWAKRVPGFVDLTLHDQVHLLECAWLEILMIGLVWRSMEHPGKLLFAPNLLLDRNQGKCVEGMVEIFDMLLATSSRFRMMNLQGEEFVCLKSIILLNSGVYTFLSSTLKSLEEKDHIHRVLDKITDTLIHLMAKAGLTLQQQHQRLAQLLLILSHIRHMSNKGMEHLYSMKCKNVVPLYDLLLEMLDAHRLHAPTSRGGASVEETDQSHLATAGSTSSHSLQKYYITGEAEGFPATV

[7] = molecular target: Estrogen receptor (Homo sapiens, UniProt P03372, E353A)
[8] = molecular target: T3, Estrogen receptor (Homo sapiens) (UniProt P03372); assay: Agonist activity at human wild type ERalpha expressed in human HeLa cells co-expressing AP-1 assessed as transactivation activity by luciferase reporter gene assay; type: functional, cell-based
T3 sequence (whole entry): T2 sequence (P03372 whole entry)

T1 sequence (Q92731 whole entry): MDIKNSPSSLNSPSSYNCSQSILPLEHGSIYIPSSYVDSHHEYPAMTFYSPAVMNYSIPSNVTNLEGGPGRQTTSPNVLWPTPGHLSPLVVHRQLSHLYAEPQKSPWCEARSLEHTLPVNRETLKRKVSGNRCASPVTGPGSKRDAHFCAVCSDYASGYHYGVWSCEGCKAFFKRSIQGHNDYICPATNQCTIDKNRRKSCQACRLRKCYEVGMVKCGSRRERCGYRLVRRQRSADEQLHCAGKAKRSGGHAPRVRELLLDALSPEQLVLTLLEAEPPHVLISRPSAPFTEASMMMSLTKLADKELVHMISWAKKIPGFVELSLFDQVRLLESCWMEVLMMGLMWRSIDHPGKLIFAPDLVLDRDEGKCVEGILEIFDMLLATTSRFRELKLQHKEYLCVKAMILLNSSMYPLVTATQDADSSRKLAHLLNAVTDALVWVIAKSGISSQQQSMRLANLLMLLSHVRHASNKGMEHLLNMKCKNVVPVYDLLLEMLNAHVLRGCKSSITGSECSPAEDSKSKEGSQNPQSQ
Chain of Estrogen receptor (Homo sapiens, UniProt P03372, E353A) (P03372 whole entry E353A): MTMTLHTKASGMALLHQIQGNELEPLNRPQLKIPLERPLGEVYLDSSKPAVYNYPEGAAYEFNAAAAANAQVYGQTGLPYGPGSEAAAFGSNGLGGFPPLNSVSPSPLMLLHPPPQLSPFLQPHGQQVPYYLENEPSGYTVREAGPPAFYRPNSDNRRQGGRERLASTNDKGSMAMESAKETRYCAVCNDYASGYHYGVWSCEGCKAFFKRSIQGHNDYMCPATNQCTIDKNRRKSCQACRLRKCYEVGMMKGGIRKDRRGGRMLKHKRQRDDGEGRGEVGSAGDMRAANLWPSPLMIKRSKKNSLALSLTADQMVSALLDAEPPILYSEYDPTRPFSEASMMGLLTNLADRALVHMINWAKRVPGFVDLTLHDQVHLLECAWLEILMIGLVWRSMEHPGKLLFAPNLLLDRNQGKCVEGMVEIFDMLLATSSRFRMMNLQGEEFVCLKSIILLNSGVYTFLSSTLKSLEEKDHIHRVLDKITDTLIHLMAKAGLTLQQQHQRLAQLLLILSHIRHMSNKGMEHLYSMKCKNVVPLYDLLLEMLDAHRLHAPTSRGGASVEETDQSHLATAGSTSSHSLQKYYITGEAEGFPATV
Chain of Estrogen receptor beta (Homo sapiens, UniProt Q92731, E305A) (Q92731 whole entry E305A): as the sequence (Q92731 whole entry) above, with E305A counted along it
Chain of Estrogen receptor beta (Homo sapiens), Q92731 [E305A] (Q92731 whole entry E305A): as the sequence (Q92731 whole entry) above, with E305A counted along it

EC50 [1]	Activity [2]	IC50 [3]	IC50 [4]	IC50 [5]	IC50 [6]	IC50 [7]	Compound	Activity [8]
150 nM	inactive	> 10000 nM	> 10000 nM	104 nM	82 nM	212 nM	O=C(O)/C=C/c1ccc2c(C(=O)c3ccc(OCCN4CCCCC4)cc3)c(-c3ccc(O)cc3)sc2c1	
							CCCCN(C)C(=O)CCCCCCCCCC[C@@H]1Cc2cc(O)ccc2[C@H]2CC[C@]3(C)[C@@H](O)CC[C@H]3[C@H]12	Active
